Laboratory results from patent US20150065456A1, “AGENT FOR TREATMENT AND PREVENTION OF CANCER” (Daiichi Sankyo Company, Limited, priority 2013, published 2015).
Read-outs that look alike come from different tables or passages of the source.

Columns and labels:
[1] = test system: subjects with symptomatic venous thromboembolism (VTE); assay: Hokusai VTE phase 3 clinical study: investigator-reported malignancies clinically evident post-randomization; type: in vivo, human; conditions: for All Subjects with a Malignancy Event, HR: edoxaban vs warfarin, Cox proportional hazards model
Method: The study was a randomized, double-blind, clinical study, in which subjects with symptomatic venous thromboembolism (VTE), which included PE, with or without deep venous thrombosis (DVT), or DVT only, were treated with either edoxaban or warfarin, a Vitamin K antagonist, which is an indirect inhibitor of coagulation. […] The subjects participating in the study were adult male and female patients presenting with acute, symptomatic DVT involving popliteal, femoral, or ileac veins, or PE requiring anti-thrombotic therapy. Patients with various types of cancer were among the subjects who were treated in this study, so long as long term treatment with heparin was not anticipated as a treatment regimen for such patients. This clinical study is named Hokusai-VTE and is the largest single phase 3 clinical study in the treatment and prevention of recurrence of VTE using an FXa inhibitor such as edoxaban. More than 8,250 patients were enrolled in the study from more than 400 clinical sites across 38 countries worldwide. The Hokusai-VTE clinical study was designed to reflect clinical practice, using a standard heparin lead-in and providing a flexible treatment duration of three, six or twelve months. This study design allowed the evaluation of patients with a broad range of risks, including patients with moderate or severe conditions of PE and DVT. […] (See, Example 1, infra).
The study (Hokusai VTE Clinical Study) constituted a phase 3, randomized, double-blind, double-dummy, parallel-group, multi-center, multi-national study for the evaluation of efficacy and safety of (LMW) heparin/edoxaban versus (LMW) heparin/warfarin in subjects with symptomatic deep-vein thrombosis and/or pulmonary embolism. The study indication related to the reduction of the risk of symptomatic recurrent venous thromboembolic complications in patients with acute symptomatic deep vein thrombosis (DVT) and/or pulmonary embolism (PE). […] Accordingly, the nature of the study was the use of edoxaban as direct inhibitor of Factor Xa in the treatment of VTE.
Following stratification and treatment allocation as described above, all patients were randomized to either a standard of care (SOC) treatment regimen, i.e., heparin+warfarin, until the international normalized ratio (INR) was between 2-3, followed by warfarin alone; or an edoxaban treatment regimen, i.e., heparin for 5 days followed by edoxaban (as the free base) at a dose of 60-mg QD (or 30-mg QD, in the low exposure group). This study aimed to treat all patients for the entire 12 month period following randomization. Ultimately, the evolving nature of the patient's clinical status and changes in the risk/benefit over time determined the length of treatment for a given patient. Irrespective of actual treatment duration, all patients were followed for the entire 12 months after randomization.
Edoxaban was administered in 30 and 60 mg dose-strengths in tablet form. Warfarin was administered in 1, 2.5 and 5 mg dose-strengths. Matching placebos were used for each of the test drugs. Edoxaban and warfarin were administered orally (PO). Enoxaparin was administered by subcutaneous (SC) injection.
The study was an event-driven, Phase 3, multi-national, multi-center, randomized, double-blind, matching placebo, parallel-group non-inferiority study for efficacy. The total study period after randomization was 12 months in duration. Ideally, all subjects remained on study treatment throughout this period. However, mitigating factors related to the subject's clinical status could influence the total duration of treatment a given subject actually received (See, Treatment Arms, below). Nevertheless, all subjects were administered a minimum of three months' treatment consistent with current ACCP Guidelines.

[2] = monkeys; cited from earlier work
[3] = cited from earlier work
[4] = rats; cited from earlier work
[5] = Overall Study Period (up to 12 months)

| SMILES | All Subjects with a Malignancy Event, (%) ([1]; On-Treatment Study Period) | Leukemia, Lymphoma, and Other Blood Malignancies, (%) ([1]; On-Treatment Study Period) | Malignancy diagnosed as a result of work-up for anemia or bleeding: No, (%) ([1]; On-Treatment Study Period) | Malignancy diagnosed as a result of work-up for anemia or bleeding: Yes, (%) ([1]; On-Treatment Study Period) | Solid Tumor, (%) ([1]; On-Treatment Study Period) | All Subjects with a Malignancy Event, (%) [1, 5] | Leukemia, Lymphoma, and Other Blood Malignancies, (%) [1, 5] | Malignancy diagnosed as a result of work-up for anemia or bleeding: No, (%) [1, 5] | Malignancy diagnosed as a result of work-up for anemia or bleeding: Yes, (%) [1, 5] | Solid Tumor, (%) [1, 5] | All Subjects with a Malignancy Event, (%) ([1]; Treatment+30 Days Study Period) | Leukemia, Lymphoma, and Other Blood Malignancies, (%) ([1]; Treatment+30 Days Study Period) | Malignancy diagnosed as a result of work-up for anemia or bleeding: No, (%) ([1]; Treatment+30 Days Study Period) | Malignancy diagnosed as a result of work-up for anemia or bleeding: Yes, (%) ([1]; Treatment+30 Days Study Period) | Solid Tumor, (%) ([1]; Treatment+30 Days Study Period) | also measured |
| --- | --- | --- | --- | --- | --- | --- | --- | --- | --- | --- | --- | --- | --- | --- | --- | --- |
| CC(=O)CC(c1ccccc1)c1c(O)c2ccccc2oc1=O (stereo not drawn) [Warfarin, warfarin, reference compound] | 2.2% | 0.1% | 1.9% | 0.2% | 2.0% | 3.3% | 0.2% | 2.8% | 0.5% | 3.1% | 2.9% | 0.2% | 2.4% | 0.5% | 2.6% |  |
| CN1CCc2nc(C(=O)N[C@@H]3C[C@@H](C(=O)N(C)C)CC[C@@H]3NC(=O)C(=O)Nc3ccc(Cl)cn3)sc2C1 [Edoxaban] | (1.6) % | (<0.1) % | (1.4) % | (0.2) % | (1.5) % | (2.8) % | (0.2) % | (2.2) % | (0.6) % | (2.7) % | (2.4) % | (0.1) % | (1.8) % | (0.6) % | (2.3) % | oral bioavailability [2]: orally bioavailable; safety and tolerability ([3]; doses of up to 90-mg per day): generally safe and well tolerated; oral bioavailability ([3]; human subjects): orally bioavailable; oral bioavailability [4]: orally bioavailable; Kaplan-Meier cumulative incidence (%) of new or recurrent malignancies versus warfarin-treated subjects ([1]; FIG. 1, treatment +30 days study period, 390 days from initial study drug administration): significant decrease; Kaplan-Meier cumulative incidence (%) of new or recurrent malignancies versus warfarin-treated subjects ([1]; FIG. 2, overall study period, about 360 days from initial study drug administration): significant decrease; All Subjects with a Malignancy Event, HR ([1]; On-Treatment Study Period): 0.73; All Subjects with a Malignancy Event, HR ([1]; Overall Study Period): 0.85; All Subjects with a Malignancy Event, HR ([1]; Treatment+30 Days Study Period): 0.84 |
